Assay [1] relates to Basal cells (bronchospheres). Briefly: bronchosphere 3D Matrigel culture assay. It is filed as cell-based, human. As for the experimental part: The effect of Abl kinase inhibition on the development of bronchospheres in a 3D Matrigel culture assay was also evaluated. Basal cells were cultured in Matrigel at passage 1 and treated with vehicle control, the Abl kinase inhibitor, GNF5, or the Abl kinase activator, DPH, for three days starting two days after plating the cells.

Assay [2] has as its system mouse airway epithelium after SO2 injury. Briefly: sulfur dioxide (SO2) airway injury mouse model. It is filed as in vivo. The source says:
To evaluate whether the Abl kinases promote basal cell differentiation in vivo, the sulfur dioxide (SO2) injury model was employed (FIG. 22). SO2 inhalation elicits cell death and sloughing of luminal (ciliated and secretory) cells, leaving a layer of intact basal cells in the tracheobronchial region (Zuo W. et al. (2015) Nature. 517(7536):616-20). Previous studies have shown that after SO2-induced destruction and sloughing of luminal cells, the surviving basal cells (Krt5+) proliferate to generate progenitor cells (Krt8+) that accumulate and subsequently undergo differentiation into ciliated (acetylated alpha-tubulin+) and secretory (Scgb1a1+) cells (5 days to 2 weeks after injury) (Hogan B L, et al. (2014) Cell stem cell, 15(2):123-38). This well-defined model of airway injury and regeneration has been employed to identify signaling pathways that promote proliferation and differentiation of the lung epithelium after injury (Hogan B L, et al. (2014) Cell stem cell, 15(2):123-38, Tadokoro T, et al., (2014) Proceedings of the National Academy of Sciences of the U.S.A. 111(35):E3641-9).
To distinguish between protective and regenerative effects of Abl kinase inhibition, the expression of various proliferation and differentiation markers in the mouse trachea after injury was evaluated.
Next, whether Abl kinase inhibition promotes basal cell differentiation to Krt8+ cells by affecting Yap1 signaling was investigated. Three days after SO2 injury, mouse tracheas were harvested and evaluated for Yap1 protein expression by immunofluorescence.

A further assay has as its system Abl kinases. The following applies: Zhang J. et al. (2010) Nature 463:501-506; cited from earlier work.

Regarding `O=C(NCCO)c1cccc(-c2cc(Nc3ccc(OC(F)(F)F)cc3)ncn2)c1` [GNF5, N-(2-Hydroxyethyl)-3-(6-(4-(trifluoromethoxy)phenylamino)pyrimidin-4-yl)benzamide], in assay [1] (bronchosphere lysates), the “SOX2 (basal cell marker) expression, immunoblot” value was “decrease in the basal cell marker, SOX2” and the “acetylated α-tubulin (ciliated cell marker) expression, immunoblot” value is “increase in the ciliated cell marker, acetylated α-tubulin”. The “bronchosphere growth: basal cell proliferation and differentiation” value in assay [1] (treated three days starting two days after plating) was “promoted basal cell proliferation and differentiation”. Further, in assay [1] (vs untreated cells), the “Ki67 (proliferation marker) protein expression” value is recorded as “increase in protein expression of the proliferation marker, Ki67”. The “Ki67 expression in tracheal basal cells” value in assay [2] (24 h following SO2 induced injury, vs untreated) is listed as “significant increase in the expression of Ki67”. The “Scgb1a1+ Club cells and acetylated α-tubulin+ ciliated cells (staining)” value in assay [2] (24 hours after SO2 exposure) was “mostly intact layer of secretory cells and some ciliated cells”. The “quantification of acetylated α-tubulin+ ciliated cells in whole tracheas” value in assay [2] (24 hours after sulfur dioxide, pre-treatment 24 hours before) is recorded as “protection of ciliated cells”. The “pseudostratified epithelium in whole trachea sections (immunofluorescence)” value in assay [2] (after SO2 injury, vs untreated mice) is recorded as “preservation of the pseudostratified epithelium”. In assay [2] (three days after SO2 injury), the “Yap1 localization in basal cells” value is recorded as “predominantly cytoplasmic localization of Yap1” and the “tracheal epithelium morphology (H&E)” value was “stratified, columnar, ciliated epithelium that had almost completely recovered from injury”. Also, in assay [2] (within 24 hours after SO2 injury, pre-treated mice), the “state of airway epithelium” value is “mostly intact mouse airway epithelium”. Besides, in the assay with Abl kinases, the “selectivity versus other protein kinases” value was “does not inhibit other protein kinases”.

Values taken from US12419891B2, “Compositions for the treatment of pathogenic- and/or chemical-induced lung injury and for the treatment of cancer and methods of using same” (Duke University, priority 2019, dated 2025).
